From patent US12371454B2, “Cyclic peptide compound having Kras inhibitory action” (priority 2019, dated 2025)
Starred links: 1 amine or outer side, 2 acyl side, 3 side chain; linkers in the order of their positions; H or OH if unused. Positions of bridges follow the written chain, without caps; N, C: chain ends. Non-standard residues stand in square brackets, D forms with d. Residues, ends and D or L forms follow the SMILES beside them. *: point of attachment. hPhe(3-Cl-4-CF3) = N[C@@H](CCc1ccc(C(F)(F)F)c(Cl)c1)C(=O)O; NEtPhe(4-Me) = CCN[C@@H](Cc1ccc(C)cc1)C(=O)O; NMeAbu(4,4,4-F3) = CN[C@@H](CC(F)(F)F)C(=O)O; NMePhe(4-Me) = CN[C@@H](Cc1ccc(C)cc1)C(=O)O; NMedβ3hAla = C[C@H](CC(=O)[*:2])N(C)[*:1]; NMeAla(cPent) = CN[C@@H](CC1CCCC1)C(=O)O; NMeNva(5,5-F2) = CN[C@@H](CCC(F)F)C(=O)O; NMeGly(cPent) = CN[C@H](C(=O)O)C1CCCC1; NMeCha = CN[C@@H](CC1CCCCC1)C(=O)O; NMehLeu = CN[C@@H](CCC(C)C)C(=O)O; NMeCba = CN[C@@H](CC1CCC1)C(=O)O; NMeChg = CN[C@H](C(=O)O)C1CCCCC1; NMeI = CC[C@H](C)[C@H](NC)C(=O)O; NMeD = CN[C@@H](CC(=O)O)C(=O)O; NMeL = CN[C@@H](CC(C)C)C(=O)O; NMeV = CN[C@H](C(=O)O)C(C)C; d(β3hA) = C[C@@H](N)CC(=O)O; NMeS = CN[C@@H](CO)C(=O)O; NMeA = CN[C@@H](C)C(=O)O; Piperidide = C1CCN(*)CC1; Pyrrolidide = C1CCN(*)C1; Ac5c = NC1(C(=O)O)CCCC1; Aze = O=C(O)[C@@H]1CCN1; Sar = CNCC(=O)O

Assays:
[1] = biological target: T1, Kras and SOS1 (biotin-tagged human Kras loaded with GDP, His-tagged human SOS1) (Homo sapiens, UniProt P01116, G12D); experiment: Protein-protein interaction inhibition between Kras and SOS1 (KrasGl2D-SOS PPI) using AlphaScreen; assay type: binding; settings: AlphaScreen; biotin-tagged human Kras loaded with GDP, His-tagged human SOS1; read-out: KRAS G12D-SOS PPI IC50
T1 construct: made in house; host or cells: E. coli (stated for Kras only)
T1 sequence (P01116 1-188 isoform P01116-2 G12D): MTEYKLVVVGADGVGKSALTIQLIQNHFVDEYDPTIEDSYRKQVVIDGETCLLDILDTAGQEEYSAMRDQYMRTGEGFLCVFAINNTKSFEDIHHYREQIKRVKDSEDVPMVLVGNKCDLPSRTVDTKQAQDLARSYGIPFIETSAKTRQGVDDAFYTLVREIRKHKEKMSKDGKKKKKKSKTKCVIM
Outline: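 Energy transfer from nickel-chelate donor beads bound to His-SOS1 to streptavidin acceptor beads bound to biotin-Kras, expressed in E. coli and loaded with GDP after purification, was monitored. Donors were excited at 680 nm; singlet oxygen reaching acceptors gave emission read at 520-620 nm.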

[2] = system: Human pancreatic cancer cell line AsPC-1; experiment: Measurement of AsPC-1 cell growth inhibition (AsPC-1 CGI); assay type: cell-based; settings: 96 h
Outline: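 AsPC-1 cells in 15% FBS RPMI-1640 were exposed to test compound for 96 hours at 37° C, with CellTiter-Glo as endpoint.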

Compound | IC50 [1] [nM] | IC50 [2] [nM]
CC[C@H](C)[C@@H]1NC(=O)[C@H](CC(C)C)N(C)C(=O)C[C@@H](C(=O)N2CCCCC2)N(C)C(=O)[C@H](C2CCCCC2)N(C)C(=O)C2(CCCC2)NC(=O)[C@@H]2CCCN2C(=O)[C@H](CCc2ccc(C(F)(F)F)c(Cl)c2)NC(=O)CN(C)C(=O)[C@H]([C@@H](C)CC)N(C)C(=O)CN(C)C(=O)CN(C)C1=O [Compound 1686] ([NMeL]I[Sar][Sar][NMeI][Sar][hPhe(3-Cl-4-CF3)]P[Ac5c][NMeChg][NMeD]-Piperidide; lactam N-11) | 1.5 | 100 to 500
CC[C@H](C)[C@@H]1NC(=O)[C@H](CC(C)C)N(C)C(=O)C[C@@H](C(=O)N2CCCCC2)N(C)C(=O)[C@H](C2CCCCC2)N(C)C(=O)C2(CCCC2)NC(=O)[C@@H]2CCCN2C(=O)[C@H](CCc2ccc(C(F)(F)F)c(Cl)c2)NC(=O)CN(C)C(=O)[C@H](CC2CCCC2)N(C)C(=O)CN(C)C(=O)CN(C)C1=O [Compound 1689] ([NMeL]I[Sar][Sar][NMeAla(cPent)][Sar][hPhe(3-Cl-4-CF3)]P[Ac5c][NMeChg][NMeD]-Piperidide; lactam N-11) | 1.1 | 50 to 100
CC[C@H](C)[C@@H]1NC(=O)[C@H](CC(C)C)N(C)C(=O)C[C@@H](C)N(C)C(=O)[C@H](C2CCCC2)N(C)C(=O)C2(CCCC2)NC(=O)[C@@H]2CCCN2C(=O)[C@H](CCc2ccc(C(F)(F)F)c(Cl)c2)NC(=O)CN(C)C(=O)[C@H](Cc2ccc(C)cc2)N(C)C(=O)CN(C)C(=O)CN(C)C1=O [Compound 1694] (cyclo([Ac5c][NMeGly(cPent)][NMedβ3hAla][NMeL]I[Sar][Sar][NMePhe(4-Me)][Sar][hPhe(3-Cl-4-CF3)]P)) | 0.55 | 20 to 50
CC[C@H](C)[C@@H]1NC(=O)[C@H](C)N(C)C(=O)C[C@@H](C(=O)N2CCCCC2)N(C)C(=O)[C@H](C2CCCCC2)N(C)C(=O)C2(CCCC2)NC(=O)[C@@H]2CCCN2C(=O)[C@H](CCc2ccc(C(F)(F)F)c(Cl)c2)NC(=O)CN(C)C(=O)[C@H](CC2CCCCC2)N(C)C(=O)CN(C)C(=O)CN(C)C1=O [Compound 1696] ([NMeA]I[Sar][Sar][NMeCha][Sar][hPhe(3-Cl-4-CF3)]P[Ac5c][NMeChg][NMeD]-Piperidide; lactam N-11) | 0.57 | 50 to 100
CC[C@H](C)[C@@H]1NC(=O)[C@H](CC(C)C)N(C)C(=O)C[C@@H](C(=O)N2CCCC2)N(C)C(=O)[C@H](C(C)C)N(C)C(=O)C2(CCCC2)NC(=O)[C@@H]2CCCN2C(=O)[C@H](CCc2ccc(C(F)(F)F)c(Cl)c2)NC(=O)CN(C)C(=O)[C@H](CC2CCCC2)N(C)C(=O)CN(C)C(=O)CN(C)C1=O [Compound 1699] ([NMeL]I[Sar][Sar][NMeAla(cPent)][Sar][hPhe(3-Cl-4-CF3)]P[Ac5c][NMeV][NMeD]-Pyrrolidide; lactam N-11) | 1.1 | 100 to 500
CC[C@H](C)[C@@H]1NC(=O)[C@H](CCC(F)F)N(C)C(=O)C[C@@H](C(=O)N2CCCCC2)N(C)C(=O)[C@H](C2CCCCC2)N(C)C(=O)C2(CCCC2)NC(=O)[C@@H]2CCCN2C(=O)[C@H](CCc2ccc(C(F)(F)F)c(Cl)c2)NC(=O)CN(C)C(=O)[C@H](CC2CCCCC2)N(C)C(=O)CN(C)C(=O)CN(C)C1=O [Compound 1700] ([NMeNva(5,5-F2)]I[Sar][Sar][NMeCha][Sar][hPhe(3-Cl-4-CF3)]P[Ac5c][NMeChg][NMeD]-Piperidide; lactam N-11) | 0.66 | 20 to 50
CC[C@H](C)[C@@H]1NC(=O)[C@H](CC(F)(F)F)N(C)C(=O)C[C@@H](C(=O)N2CCCCC2)N(C)C(=O)[C@H](C2CCCCC2)N(C)C(=O)C2(CCCC2)NC(=O)[C@@H]2CCCN2C(=O)[C@H](CCc2ccc(C(F)(F)F)c(Cl)c2)NC(=O)CN(C)C(=O)[C@H](CC2CCCCC2)N(C)C(=O)CN(C)C(=O)CN(C)C1=O [Compound 1701] ([NMeAbu(4,4,4-F3)]I[Sar][Sar][NMeCha][Sar][hPhe(3-Cl-4-CF3)]P[Ac5c][NMeChg][NMeD]-Piperidide; lactam N-11) | 0.75 | 20 to 50
CC[C@H](C)[C@@H]1NC(=O)[C@H](CC(F)(F)F)N(C)C(=O)C[C@@H](C(=O)N2CCCCC2)N(C)C(=O)[C@H](C(C)C)N(C)C(=O)C2(CCCC2)NC(=O)[C@@H]2CCCN2C(=O)[C@H](CCc2ccc(C(F)(F)F)c(Cl)c2)NC(=O)CN(C)C(=O)[C@H](CC2CCCCC2)N(C)C(=O)[C@@H]2CCN2C(=O)[C@H](C)N(C)C1=O [Compound 1704] ([NMeAbu(4,4,4-F3)]I[NMeA][Aze][NMeCha][Sar][hPhe(3-Cl-4-CF3)]P[Ac5c][NMeV][NMeD]-Piperidide; lactam N-11) | 6 | 100 to 500
CC[C@H](C)[C@@H]1NC(=O)[C@H](CC(C)C)N(C)C(=O)C[C@@H](C(=O)N2CCCCC2)N(C)C(=O)[C@H](C(C)C)N(C)C(=O)C2(CCCC2)NC(=O)[C@@H]2CCCN2C(=O)[C@H](CCc2ccc(C(F)(F)F)c(Cl)c2)NC(=O)CN(C)C(=O)[C@H](CCC(C)C)N(C)C(=O)[C@@H]2CCN2C(=O)[C@H](C)N(C)C1=O [Compound 1709] ([NMeL]I[NMeA][Aze][NMehLeu][Sar][hPhe(3-Cl-4-CF3)]P[Ac5c][NMeV][NMeD]-Piperidide; lactam N-11) | 10 | 100 to 500
CC[C@H](C)[C@@H]1NC(=O)[C@H](CC(C)C)N(C)C(=O)C[C@@H](C(=O)N2CCCC2)N(C)C(=O)[C@H](C(C)C)N(C)C(=O)C2(CCCC2)NC(=O)[C@@H]2CCCN2C(=O)[C@H](CCc2ccc(C(F)(F)F)c(Cl)c2)NC(=O)CN(C)C(=O)[C@H](CC2CCCCC2)N(C)C(=O)CN(C)C(=O)CN(C)C1=O [Compound 1711] ([NMeL]I[Sar][Sar][NMeCha][Sar][hPhe(3-Cl-4-CF3)]P[Ac5c][NMeV][NMeD]-Pyrrolidide; lactam N-11) | 0.78 | 100 to 500
CC[C@H](C)[C@@H]1NC(=O)[C@H](CO)N(C)C(=O)C[C@@H](C(=O)N2CCCCC2)N(C)C(=O)[C@H](C2CCCCC2)N(C)C(=O)C2(CCCC2)NC(=O)[C@@H]2CCCN2C(=O)[C@H](CCc2ccc(C(F)(F)F)c(Cl)c2)NC(=O)CN(C)C(=O)[C@H](CC2CCCCC2)N(C)C(=O)CN(C)C(=O)CN(C)C1=O [Compound 1713] ([NMeS]I[Sar][Sar][NMeCha][Sar][hPhe(3-Cl-4-CF3)]P[Ac5c][NMeChg][NMeD]-Piperidide; lactam N-11) | 0.49 | 100 to 500
CC[C@H](C)[C@@H]1NC(=O)[C@H](CC(C)C)N(C)C(=O)C[C@@H](C)NC(=O)[C@H](C2CCCC2)N(C)C(=O)C2(CCCC2)NC(=O)[C@@H]2CCCN2C(=O)[C@H](CCc2ccc(C(F)(F)F)c(Cl)c2)NC(=O)CN(C)C(=O)[C@H](Cc2ccc(C)cc2)N(CC)C(=O)[C@@H]2CCN2C(=O)[C@H](C)N(C)C1=O [Compound 1714] (cyclo([Ac5c][NMeGly(cPent)][d(β3hA)][NMeL]I[NMeA][Aze][NEtPhe(4-Me)][Sar][hPhe(3-Cl-4-CF3)]P)) | 2.3 | 50 to 100
CC[C@H](C)[C@@H]1NC(=O)[C@H](CC(C)C)N(C)C(=O)C[C@@H](C(=O)N2CCCCC2)N(C)C(=O)[C@H](C(C)C)N(C)C(=O)C2(CCCC2)NC(=O)[C@@H]2CCCN2C(=O)[C@H](CCc2ccc(C(F)(F)F)c(Cl)c2)NC(=O)CN(C)C(=O)[C@H](CC2CCC2)N(C)C(=O)[C@@H]2CCN2C(=O)[C@H](C)N(C)C1=O [Compound 1716] ([NMeL]I[NMeA][Aze][NMeCba][Sar][hPhe(3-Cl-4-CF3)]P[Ac5c][NMeV][NMeD]-Piperidide; lactam N-11) | 7.9 | 100 to 500
CC[C@H](C)[C@@H]1NC(=O)[C@H](C)N(C)C(=O)C[C@@H](C(=O)N2CCCC2)N(C)C(=O)[C@H](C2CCCCC2)N(C)C(=O)C2(CCCC2)NC(=O)[C@@H]2CCCN2C(=O)[C@H](CCc2ccc(C(F)(F)F)c(Cl)c2)NC(=O)CN(C)C(=O)[C@H](CC2CCCCC2)N(C)C(=O)CN(C)C(=O)CN(C)C1=O [Compound 1720] ([NMeA]I[Sar][Sar][NMeCha][Sar][hPhe(3-Cl-4-CF3)]P[Ac5c][NMeChg][NMeD]-Pyrrolidide; lactam N-11) | 0.58 | 50 to 100
CC[C@H](C)[C@@H]1NC(=O)[C@H](CC(C)C)N(C)C(=O)C[C@@H](C(=O)N2CCCC2)N(C)C(=O)[C@H](C2CCCCC2)N(C)C(=O)C2(CCCC2)NC(=O)[C@@H]2CCCN2C(=O)[C@H](CCc2ccc(C(F)(F)F)c(Cl)c2)NC(=O)CN(C)C(=O)[C@H](CC2CCCCC2)N(C)C(=O)[C@@H]2CCN2C(=O)[C@H](C)N(C)C1=O [Compound 1726] ([NMeL]I[NMeA][Aze][NMeCha][Sar][hPhe(3-Cl-4-CF3)]P[Ac5c][NMeChg][NMeD]-Pyrrolidide; lactam N-11) | 0.68 | 20 to 50
CC[C@H](C)[C@@H]1NC(=O)[C@H](CC(C)C)N(C)C(=O)C[C@@H](C(=O)N(C)C)N(C)C(=O)[C@H](C(C)C)N(C)C(=O)C2(CCCC2)NC(=O)[C@@H]2CCCN2C(=O)[C@H](CCc2ccc(C(F)(F)F)c(Cl)c2)NC(=O)CN(C)C(=O)[C@H](CC2CCCCC2)N(C)C(=O)[C@@H]2CCN2C(=O)[C@H](C)N(C)C1=O [Compound 1728] ([NMeL]I[NMeA][Aze][NMeCha][Sar][hPhe(3-Cl-4-CF3)]P[Ac5c][NMeV][NMeD]-NMe2; lactam N-11) | 1.2 | 50 to 100
